Assay results published in PubChem BioAssay (NCI).
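Where inhibition never reached the appropriate level, the endpoint shown equals the highest concentration tested. Otherwise, values were interpolated linearly from a five-concentration, 48-hour dose response in 96-well plates. Here, GI50 denotes the concentration required for 50% inhibition of growth. TGI: concentration producing complete growth inhibition.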

Assays:
Experiment in all cases: NCI anticancer screen, dose series, 48 h
KM20L2 colon = tested on: KM20L2 colon
SN12C renal = tested on: SN12C renal
SNB-19 CNS = tested on: SNB-19 CNS
HCT-116 colon = tested on: HCT-116 colon
SK-OV-3 ovarian = tested on: SK-OV-3 ovarian
DMS 273 small cell lung = tested on: DMS 273 small cell lung
RXF 393 renal = tested on: RXF 393 renal
MCF7 breast = tested on: MCF7 breast
T-47D breast = tested on: T-47D breast
BT-549 breast = tested on: BT-549 breast

SMILES	TGI (KM20L2 colon) [µM]	TGI (SN12C renal) [µM]	TGI (SNB-19 CNS) [µM]	TGI (HCT-116 colon) [µM]	TGI (SK-OV-3 ovarian) [µM]	TGI (DMS 273 small cell lung) [µM]	TGI (RXF 393 renal) [µM]	GI50 (KM20L2 colon) [µM]	GI50 (SN12C renal) [µM]	GI50 (SNB-19 CNS) [µM]	GI50 (HCT-116 colon) [µM]	GI50 (SK-OV-3 ovarian) [µM]	GI50 (DMS 273 small cell lung) [µM]	GI50 (RXF 393 renal) [µM]	TGI (MCF7 breast) [µM]	TGI (T-47D breast) [µM]	TGI (BT-549 breast) [µM]
COc1ccc2c(c1)[n+]([O-])c(-c1ccc([N+](=O)[O-])cc1)c(N)[n+]2[O-]	> 100	> 100	> 100	> 100	> 100	> 100	> 100										
O=S(=O)([O-])c1ccc(N=Cc2ccccc2[O-])cc1.O=S(=O)([O-])c1ccc(N=Cc2ccccc2[O-])cc1.[O]=[U+2]=[O]	> 100	> 100	> 100	> 100	> 100	> 100	> 100	> 100	> 100	66.4	20	> 100	> 100	81.7			
Nc1nc2c(ncn2C2CCC(CO)O2)c(=O)n1C(=O)c1ccccc1 (stereo not drawn)	> 100	> 100	> 100	> 100	> 100	> 100	> 100								> 100	> 100	> 100
COC(=O)C(=O)C(C(=O)C(=O)Nc1cccc(C(C)=O)c1)c1nc2ccc([N+](=O)[O-])cc2[nH]c1=O (stereo not drawn)	> 100	> 100	> 100	> 100	> 100	> 100	> 100										
CC12OOC(c3ccccc31)c1c2ccc2ccccc12 (stereo not drawn)	11.3	29.6	30.5	3.21	34.3	21	7.53								32.4	3.84	22.3
